The compounds below were run against Cathepsin D (Homo sapiens, UniProt P07339) (assay: Fluorescence Resonance Energy Transfer Assay: Recombinant Cat D was expressed in CHO cells. The assay buffer for CathepsinD is 0.05 M citrate pH 3.5, 10% DMSO final, 5 mM CHAPS. The Cat D enzyme (9 nM) is pre-incubated for one hour with inhibitors, typically in about 1 uL of DMSO according to a serial dilution, is added thereto. The assays are effectively started by the addition of different FRET substrates (20 nM for Cat D) and the combination is incubated for one hour. The FRET assay is terminated with by addition of Tris buffer, which raises the pH to neutrality, and the fluorescence is determined. The FRET substrate is a peptide with commercially available fluorophore and quencher, on opposite sides of the BACE cleavage site. The Cat D substrate peptide sequence is based on sequence #1 of Table 1 from Gulnik et al. FEBS Letters v413 p379-384 1997. Proteolytic cleavage of the FRET substrate releases quenching of fluorescence (Cat D excitation 500 nm and emission 580 nm).).
Cathepsin D, sequence (P07339 65-162 limits assumed): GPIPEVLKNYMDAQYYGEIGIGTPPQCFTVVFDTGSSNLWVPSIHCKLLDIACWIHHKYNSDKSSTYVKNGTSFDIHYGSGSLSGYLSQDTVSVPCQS
Cathepsin D, sequence (P07339 169-412 limits assumed): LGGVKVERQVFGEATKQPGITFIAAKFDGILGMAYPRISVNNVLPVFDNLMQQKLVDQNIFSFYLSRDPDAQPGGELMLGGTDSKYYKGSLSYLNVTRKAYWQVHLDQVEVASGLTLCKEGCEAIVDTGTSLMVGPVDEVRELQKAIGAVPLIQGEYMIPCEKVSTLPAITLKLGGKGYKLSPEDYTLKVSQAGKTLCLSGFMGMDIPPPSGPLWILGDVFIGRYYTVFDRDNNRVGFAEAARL
Type: cell-based
`NC1=N[C@@](c2cc(NC(=O)c3ncc(Br)cn3)ccc2F)(C(F)F)[C@H]2C[C@H]2O1` showed an IC50 of 1020 µM.
For `NC1=N[C@](CF)(c2cc(NC(=O)c3ncc(Cl)cc3CO)ccc2Cl)[C@H]2C[C@H]2O1`, the IC50 was 533 µM.
`NC1=N[C@](CF)(c2cc(NC(=O)c3ccc(Cl)cn3)cc(F)c2F)[C@H]2C[C@H]2O1` showed an IC50 of 229 µM.
With `Cc1cc(NC(=O)c2ccc(Cl)cc2CF)cc([C@@]2(C(F)F)N=C(N)O[C@@H]3C[C@@H]32)c1F` the IC50 was 171 µM.

Source: ChEMBL document CHEMBL3639225, “Perfluorinated cyclopropyl fused 1,3-oxazin-2-amine compounds as beta-secretase inhibitors and methods of use” (2015)
